Source: the supplement of paper PMC4862054

Assays:
Details in all cases: incubation time: 72 h
BT-474 = assay: drug sensitivity score (DSS), CellTiter-Glo (DSS (AUC-based score)); higher = stronger drug effect (viability inhibition or cytotoxicity); extreme values may be limits of the assay
Outline: (§1)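 The drug sensitivity score was computed from the area under the fitted dose-response curve. Breast cancer cell lines in 20 µl suspension went into 384-well plates holding compound at 5 concentrations (10-fold steps over a 10,000-fold, compound-specific range) for 72 h of incubation. CellTox Green fluorescence (485/520 nm) was read before CellTiter-Glo luminescence, the latter after 10 min at room temperature, and each plate was normalised to 0.1 % DMSO and a positive kill control.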

BT-549 [1] = assay: as above
Outline: as §1

CAL-120 [2] = assay: as above
Outline: as §1

CAL-148 = assay: as above
Outline: as §1

CAL-51 = assay: as above
Outline: as §1

CAL-85-1 [3] = assay: as above
Outline: as §1

DU-4475 = assay: as above
Outline: as §1

HCC1143 = assay: as above
Outline: as §1

HCC1599 = assay: as above
Outline: as §1

HCC1937 = assay: as above
Outline: as §1

HDQ-P1 = assay: as above
Outline: as §1

Hs578T = assay: as above
Outline: as §1

MCF-10A = assay: as above
Outline: as §1

MDA-MB-231 = assay: as above
Outline: as §1

MDA-MB-436 [4] = assay: as above
Outline: as §1

MDA-MB-453 = assay: as above
Outline: as §1

MDA-MB-468 = assay: as above
Outline: as §1

MFM-223 [5] = assay: as above
Outline: as §1

SK-BR-3 = assay: as above
Outline: as §1

BT-549 [6] = assay: drug sensitivity score (DSS), CellTox Green (DSS (AUC-based score)); higher = stronger drug effect (viability inhibition or cytotoxicity); extreme values may be limits of the assay
Outline: as §1

CAL-120 [7] = assay: as above
Outline: as §1

CAL-85-1 [8] = assay: as above
Outline: as §1

MDA-MB-436 [9] = assay: as above
Outline: as §1

MFM-223 [10] = assay: as above
Outline: as §1

| SMILES | drug sensitivity score (BT-474) | drug sensitivity score (BT-549 [1]) | drug sensitivity score (CAL-120 [2]) | drug sensitivity score (CAL-148) | drug sensitivity score (CAL-51) | drug sensitivity score (CAL-85-1 [3]) | drug sensitivity score (DU-4475) | drug sensitivity score (HCC1143) | drug sensitivity score (HCC1599) | drug sensitivity score (HCC1937) | drug sensitivity score (HDQ-P1) | drug sensitivity score (Hs578T) | drug sensitivity score (MCF-10A) | drug sensitivity score (MDA-MB-231) | drug sensitivity score (MDA-MB-436 [4]) | drug sensitivity score (MDA-MB-453) | drug sensitivity score (MDA-MB-468) | drug sensitivity score (MFM-223 [5]) | drug sensitivity score (SK-BR-3) | drug sensitivity score (BT-549 [6]) | drug sensitivity score (CAL-120 [7]) | drug sensitivity score (CAL-85-1 [8]) | drug sensitivity score (MDA-MB-436 [9]) | drug sensitivity score (MFM-223 [10]) |
| --- | --- | --- | --- | --- | --- | --- | --- | --- | --- | --- | --- | --- | --- | --- | --- | --- | --- | --- | --- | --- | --- | --- | --- | --- |
| C/C(=C\c1csc(C)n1)[C@@H]1C[C@@H]2O[C@]2(C)CCC[C@H](C)[C@H](O)[C@@H](C)C(=O)C(C)(C)[C@@H](O)CC(=O)N1 [Ixabepilone] | 1.23 | 13.9 | 0 | 0 | 14.8 | 2.2 | 0 | 0 | 0 | 0 | 0 | 0 | 0 | 0 | 0 | 0 | 13.9 | 0 | 0 | 5.33 | 0 | 4.02 | 0 | 0 |
| CCNC(=O)CCC/C=C\C[C@@H]1[C@@H](/C=C/[C@@H](O)CCc2ccccc2)[C@H](O)C[C@@H]1O [Bimatoprost] | 0 | 0 | 0 | 0 | 0 | 0 | 0 | 0 | 0 | 0 | 0 | 0 | 0 | 0 | 0 | 0 | 0 | 0 | 0 | 0 | 0 | 0 | 0 | 0 |
| COc1cc(Nc2c(C#N)cnc3cc(OCCCN4CCN(C)CC4)c(OC)cc23)c(Cl)cc1Cl [Bosutinib] | 6.85 | 4.99 | 5.53 | 1.7 | 7.53 | 9.16 | 0 | 3.67 | 5.58 | 7.57 | 11.3 | 0.947 | 15.1 | 8.52 | 7.31 | 5.47 | 8.1 | 4.34 | 5.72 | 1.47 | 0 | 8.13 | 2.19 | 0 |
| CCn1c(C(=O)N(C2CC2)C2CC2)cc2c3c(ncn3C)c(Nc3cc(C)n(C)n3)nc21 | 0 | 0 | 0 | 0 | 0 | 0 | 0 | 0 | 0 | 0 | 0 | 0 | 0 | 0 | 0 | 0 | 0.0233 | 0 | 0 |  | 0 | 0 | 0 | 0 |
| Cc1cc(Nc2nc(N[C@@H](C)c3ncc(F)cn3)ncc2Cl)[nH]n1 [AZD1480] | 0 | 0 | 0 | 0 | 0 | 0 | 0 | 0 | 0 | 0 | 0 | 0 | 0 | 0 | 0 | 0 | 0 | 5.17 | 0 | 0.354 | 0 | 0 | 0 | 1.25 |
| CO[C@@]12[C@H](COC(N)=O)C3=C(C(=O)C(C)=C(N)C3=O)N1C[C@@H]1N[C@@H]12 [Mitomycin C] | 0 | 8.27 | 0.335 | 0 | 10.5 | 2.91 | 0 | 0 | 0 | 0 | 0.633 | 0 | 0 | 0 | 3.39 | 0 | 4.87 | 0 | 1.42 | 0 | 0 | 0 | 0 | 1.79 |
| CN[C@@H](C)C(=O)N[C@H]1CN(C(=O)CC(C)C)CC[C@H]2CC[C@@H](C(=O)NC(c3ccccc3)c3ccccc3)N2C1=O [AT-406] | 20.1 | 17.3 | 0 | 0 | 0 | 7.99 | 0 | 0 | 0 | 0 | 2.18 | 0 | 0 | 16 | 0 | 4.36 | 4.99 | 0 | 0 | 8.86 |  | 22.9 | 0 | 0 |
| CN(C)C(=N)NC(=N)N [Metformin] | 0 | 0 | 0 | 0 | 6.92 | 0 | 0 | 0 | 0 | 0 | 0 | 0 | 0 | 0 | 0 | 0 | 0.63 | 0 | 0 |  | 0 | 0 | 0 | 0 |
| CC(C)C[C@H](NC(=O)[C@@H](COC(C)(C)C)NC(=O)[C@H](Cc1ccc(O)cc1)NC(=O)[C@H](CO)NC(=O)[C@H](Cc1c[nH]c2ccccc12)NC(=O)[C@H](Cc1cnc[nH]1)NC(=O)[C@@H]1CCC(=O)N1)C(=O)N[C@@H](CCCNC(=N)N)C(=O)N1CCC[C@H]1C(=O)NNC(N)=O [Goserelin] | 0 | 0 | 0 | 0 | 0 | 0 | 0 | 0 | 0 | 0 | 0 | 0 | 0 | 0 | 0 | 0 | 0 | 0 | 0 | 0 | 0 | 0 | 0 |  |
